Measurements taken from patent US7414107B2, “Pharmacologically active peptide conjugates having a reduced tendency towards enzymatic hydrolysis” (priority 1998, dated 2008).
Where a SMILES comes first, the peptide text is derived from it. Where no end group is shown, it is not given here. [ ]: non-standard residue; d: D form. Dap = NC[C@H](N)C(=O)O

Columns and labels:
leucine aminopeptidase = molecular target: T1, leucine aminopeptidase (Sus scrofa, UniProt P28839); experiment: Hydrolysis kinetics in leucine aminopeptidase solution; assay type: in vitro ADME, porcine; conditions: 50 mM phosphate buffer pH 7.4, 37° C., leucine aminopeptidase 25 U/ml; for half-life: pig
T1 construct: purchased Sigma, UK type III-CP (catalogue number not given); host or cells: porcine kidney
T1 sequence (P28839 1-519): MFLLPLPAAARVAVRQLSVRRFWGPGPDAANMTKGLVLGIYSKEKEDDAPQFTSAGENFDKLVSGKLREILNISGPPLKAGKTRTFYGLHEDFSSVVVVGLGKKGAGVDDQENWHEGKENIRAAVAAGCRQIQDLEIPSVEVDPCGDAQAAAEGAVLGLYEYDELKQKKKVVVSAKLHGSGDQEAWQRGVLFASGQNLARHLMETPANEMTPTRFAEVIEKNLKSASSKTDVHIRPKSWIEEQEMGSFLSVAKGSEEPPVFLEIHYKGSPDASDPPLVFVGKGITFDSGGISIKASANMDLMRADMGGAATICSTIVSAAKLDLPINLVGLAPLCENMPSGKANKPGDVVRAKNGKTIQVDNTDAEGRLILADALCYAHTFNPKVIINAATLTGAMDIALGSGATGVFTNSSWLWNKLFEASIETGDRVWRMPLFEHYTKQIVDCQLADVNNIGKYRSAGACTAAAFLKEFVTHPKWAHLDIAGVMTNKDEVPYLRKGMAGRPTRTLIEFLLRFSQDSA
Procedure, shortened: (§1)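 Peptide conjugate or native peptide at ~0.1 mg/ml final (10^−5-10^−4M) incubated at 37° C in 50 mM phosphate pH 7.4 with leucine aminopeptidase (25 U/ml) or carboxypeptidase A (1 or 25 U/ml). Timed samples quenched with TFA/acetonitrile and quantified by RP-HPLC at 215 nm. t1/2 = ln2/kobs from first-order log plots.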

carboxypeptidase A = molecular target: T2, carboxypeptidase A (Bos taurus, UniProt P00730); experiment: Hydrolysis kinetics in carboxypeptidase A solution; assay type: in vitro ADME, bovine; conditions: 50 mM phosphate buffer pH 7.4, 37° C., carboxypeptidase A 1 U/ml
T2 construct: purchased Sigma, UK type I (catalogue number not given); host or cells: bovine pancreas
T2 sequence (P00730 111-419): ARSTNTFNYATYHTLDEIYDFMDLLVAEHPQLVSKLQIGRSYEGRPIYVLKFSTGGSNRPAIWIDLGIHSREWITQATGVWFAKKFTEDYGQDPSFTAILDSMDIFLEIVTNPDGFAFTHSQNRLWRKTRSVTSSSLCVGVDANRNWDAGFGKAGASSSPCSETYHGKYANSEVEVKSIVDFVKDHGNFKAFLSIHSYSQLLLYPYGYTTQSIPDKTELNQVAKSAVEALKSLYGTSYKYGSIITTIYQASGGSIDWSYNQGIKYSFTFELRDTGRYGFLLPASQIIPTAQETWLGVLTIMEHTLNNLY
Procedure, shortened: as §1

vas deferens = conditions: read-out: EC50 value; half maximal inhibition of electrically-induced contraction, mouse vas deferens
Description: (§2) In short: vasa deferentia were isolated from male mice weighing 20-30 g (Mellegaard breeding, DK) and suspended through two electrodes in 10 ml baths at resting tension of 1 g. […] The tissues were stimulated electrically (70 V, 1 ms duration; 0.1 Hz) and contractions were recorded isometrically on a chart recorder. After equilibration of the tissue for at least 20 min, drugs were added in the bath and the maximum effects were measured.
(§3) Prior to addition of the plasma sample, a standard dose-response curve was generated in each preparation in order to express the inhibitory activity as concentration of each test substance. Thus, the calculated concentration is a reflection of inhibitory activity in the vas deferens bioassay preparation.
(§4) Where initial=initial […] contraction force prior to addition of test substance; conc=concentration of test substance; EC50=concentration of test substance that […] produced half maximal inhibition of electrically-induced contraction; background=contraction force during maximal relaxation.

[1] = Stability in mouse plasma at 37° C. (vas deferens bioassay readout)
Description: as §3, §4
All enkephalin analogues were dissolved in Krebs buffer in a concentration of 1 mM. Sixty-six μl of each test substance solution (66 nmol enkephalin analog) was incubated with 600 μl plasma at 37° C. […] Functional activity of each test substance in plasma was expressed as the concentration of the test substance that elicited the same inhibition of electrically-induced contraction in the vas deferens bioassay. T1/2 was calculated by fitting the time-concentration data to the equation: conc(t)=conc(0)·e^(−ln2/T1/2)·t where conc(0)=concentration at t=0.

[2] = Bioavailability in mice: functional activity in serum after p.o. or i.v. dosing (vas deferens bioassay)
Description: Blood samples were centrifuged immediately (3000 g, 4° C.) and serum was isolated and used for activity determination.
as §2

guinea pig illeum = conditions: agonist, induced contraction, illeum not electrically stimulated
Description: Following application of the compounds the induced contraction was measured.

osteoblast = experiment: Osteoblast retraction assay; assay type: cell-based, mice
Description: Retraction assays were performed with osteoblast prepared from calvaria of 1-day old mice according to published protocols (Miller et al., 1976, Science 192:1340-1343). In brief, osteoblasts were seeded in serum-free minimal essential medium-α (αMEM) at a density of 3000 cells per cm^2 into 96-well tissue culture plates coated with 50 μg/ml of type I collagen in phosphate-buffered saline containing 0.1% bovine serum albumin (PBS). One day after plating, PTH compounds were added to a final concentration of 10 nM and incubation was carried out for 1 h. Cells were then fixed and stained with toluidine blue, and the number of retracted cells was counted by visual inspection.

PTH (1-34)-antibody = conditions: EIAS(h)-6101 from Peninsula Laboratories; cited from earlier work

For “H-YGGFLKEEEEK-OH [Leu-Enkephalin-(Lys-Glu4-Lys)-OH, H-Tyr-Gly-Gly-Phe-Leu-Lys-Glu-Glu-Glu-Glu-Lys--OH]”, the “pseudo first-order rate constant for the degradation” value (“pseudo first-order rate constant” for short) (leucine aminopeptidase) was 0.065 min⁻¹, the half-life (leucine aminopeptidase) was 11 min and the half-life (carboxypeptidase A) was 1160 min. For the same compound, the “pseudo first-order rate constant” value (carboxypeptidase A) was 0.0006 min⁻¹, the EC50 (vas deferens) was 357 nM and the half-life at 99 µM ([1]; mouse plasma) was 84.5 min.
In the case of `CC(C)C[C@H](NC(=O)[C@H](Cc1ccccc1)NC(=O)CNC(=O)CNC(=O)[C@@H](N)Cc1ccc(O)cc1)C(=O)N[C@@H](CN)C(=O)N[C@@H](CN)C(=O)N[C@@H](CN)C(=O)N[C@@H](CN)C(=O)N[C@@H](CN)C(=O)N[C@@H](CN)C(=O)O` [Leu-Enkephalin-(Dpr)6-OH, H-Tyr-Gly-Gly-Phe-Leu-(Dpr)6-OH] (H-YGGFL[Dap][Dap][Dap][Dap][Dap][Dap]-OH), the “pseudo first-order rate constant” value (leucine aminopeptidase) is reported as 0.17 min⁻¹, the half-life (leucine aminopeptidase) is reported as 4.2 min and the half-life (carboxypeptidase A) is reported as 29 min. The “pseudo first-order rate constant” value (carboxypeptidase A) was 0.024 min⁻¹, the EC50 (vas deferens) was 200 nM and the half-life at 99 µM ([1]; plasma) was 19.8 min.
With “YGGFLKKKKKK [Leu-Enkephalin-(Lys)6-OH, H-Tyr-Gly-Gly-Phe-Leu-Lys6-OH]” the “pseudo first-order rate constant” value (leucine aminopeptidase) was 0.0097 min⁻¹, the half-life (leucine aminopeptidase) was 72 min and the “pseudo first-order rate constant” value (carboxypeptidase A) was 0.0007 min⁻¹. For the same compound, the half-life (carboxypeptidase A; cattle, carboxypeptidase A solution (1 U/ml) in phosphate buffer) was 990 min, the “Functional activity in serum” value ([2]; 50 mg/kg i.v., 5 min) was 15.9 ± 2.4 µM and the “Functional activity in serum” value ([2]; 50 mg/kg i.v., 15 min) was 8.5 ± 1.2 µM. The “Functional activity in serum” value ([2]; 50 mg/kg i.v., 30 min) was 6 ± 0.95 µM, the “Functional activity in serum” value ([2]; 50 mg/kg i.v., 60 min) was 1.6 ± 0.34 µM and the “Functional activity in serum” value ([2]; 50 mg/kg i.v., 180 min) was 0.44 ± 0.11 µM. The “Functional activity in serum” value ([2]; 50 mg/kg i.v., 240 min) was 2.5 ± 0.32 µM, the “Functional activity in serum” value ([2]; 50 mg/kg i.v., 370 min) was 31.2 ± 8.62 µM and the “Functional activity in serum” value ([2]; 50 mg/kg i.v., 720 min) was “<Detection Limit”. The “Functional activity in serum” value ([2]; 50 mg/kg i.v., 1080 min) was “<Detection Limit”, the “Functional activity in serum” value ([2]; 50 mg/kg i.v., 1440 min) was “<Detection Limit” and the “time at which activity in serum reached a maximum” value ([2]; 50 mg/kg p.o.) was 90 to 240 min. For the same compound, the “Functional activity in serum” value ([2]; 50 mg/kg p.o., 0 min) was 0 µM, the “Functional activity in serum” value ([2]; 50 mg/kg p.o., 15 min) was “<Detection Limit” and the “Functional activity in serum” value ([2]; 50 mg/kg p.o., 30 min) was 3 ± 0.8 µM. For the same compound, the “Functional activity in serum” value ([2]; 50 mg/kg p.o., 60 min) was 6 ± 1.3 µM, the “Functional activity in serum” value ([2]; 50 mg/kg p.o., 90 min) was 10.9 ± 3.8 µM and the “Functional activity in serum” value ([2]; 50 mg/kg p.o., 240 min) was 10.7 ± 0.23 µM. For the same compound, the “Functional activity in serum” value ([2]; 50 mg/kg p.o., 480 min) was 5 ± 0.58 µM, the “Functional activity in serum” value ([2]; 50 mg/kg p.o., 960 min) was 2.8 ± 0.78 µM and the “Functional activity in serum” value ([2]; 50 mg/kg p.o., 1380 min) was “<Detection Limit”. For the same compound, the EC50 (vas deferens) was 160 nM and the half-life at 99 µM ([1]; plasma) was 18.7 min.
With “H-KKKKKKRPKPQQFFGLM-NH2 [(Lys)6-Substance P-NH2, H-(Lys)6 Arg-Pro-Lys-Pro-Gln-Gln-Phe-Phe-Gly-Leu -Met-NH2]” the “pseudo first-order rate constant” value (leucine aminopeptidase) was 0.002 min⁻¹, the half-life (leucine aminopeptidase) was 347 min and the EC50 (guinea pig illeum) was 5 nM.
For `CSCC[C@H](NC(=O)[C@H](CC(C)C)NC(=O)CNC(=O)[C@H](Cc1ccccc1)NC(=O)[C@H](Cc1ccccc1)NC(=O)[C@H](CCC(N)=O)NC(=O)[C@H](CCC(N)=O)NC(=O)[C@@H]1CCCN1C(=O)[C@H](CCCCN)NC(=O)[C@@H]1CCCN1C(=O)[C@@H](N)CCCNC(=N)N)C(N)=O` [Substance P-NH2, H-Arg-Pro-Lys-Pro-Gln-Gln-Phe-Phe-Gly-Leu-Met-NH2, reference compound], the “pseudo first-order rate constant” value (leucine aminopeptidase) was 0.045 min⁻¹, the half-life (leucine aminopeptidase) was 16 min and the half-life (carboxypeptidase A) was 35 min. The “pseudo first-order rate constant” value (carboxypeptidase A) was 0.02 min⁻¹ and the EC50 (guinea pig illeum) was 40 nM.
With “YGGFLEEEEEE [Leu-Enkephalin-(Glu)6-OH, H-Tyr-Gly-Gly-Phe-Leu-Glu6-OH]” the EC50 (vas deferens) was 140 nM and the solubility (Solubility (remark)) was “very low solubility”.
In the case of `CC[C@H](C)[C@H](NC(=O)[C@H](CCC(=O)O)NC(=O)[C@H](CO)NC(=O)[C@@H](NC(=O)[C@@H](N)CO)C(C)C)C(=O)N[C@@H](CCC(N)=O)C(=O)N[C@@H](CC(C)C)C(=O)N[C@@H](CCSC)C(=O)N[C@@H](Cc1c[nH]cn1)C(=O)N[C@@H](CC(N)=O)C(=O)N[C@@H](CC(C)C)C(=O)NCC(=O)N[C@@H](CCCCN)C(=O)N[C@@H](Cc1c[nH]cn1)C(=O)N[C@@H](CC(C)C)C(=O)N[C@@H](CC(N)=O)C(=O)N[C@@H](CO)C(=O)N[C@@H](CCSC)C(=O)N[C@@H](CCC(=O)O)C(=O)N[C@@H](CCCNC(=N)N)C(=O)N[C@H](C(=O)N[C@@H](CCC(=O)O)C(=O)N[C@@H](Cc1c[nH]c2ccccc12)C(=O)N[C@@H](CC(C)C)C(=O)N[C@@H](CCCNC(=N)N)C(=O)N[C@@H](CCCCN)C(=O)N[C@@H](CCCCN)C(=O)N[C@@H](CC(C)C)C(=O)N[C@@H](CCC(N)=O)C(=O)N[C@@H](CC(=O)O)C(=O)N[C@H](C(=O)N[C@@H](Cc1c[nH]cn1)C(=O)N[C@@H](CC(N)=O)C(=O)N[C@@H](Cc1ccccc1)C(=O)O)C(C)C)C(C)C` [PTH(1-34)(Human)-OH, H-Ser-Val-Ser-Glu-Ile-Gln-Leu-Met-His-Asn-Leu-Gly-Lys -His-Leu-Asn-Ser-Met-Glu-Arg-Val-Glu-Trp-Leu-Arg-Lys-Lys-Leu-Gln-Asp-Val-His -Asn-Phe-OH, reference compound], the “pseudo first-order rate constant” value (leucine aminopeptidase) is reported as 0.0021 min⁻¹, the half-life (leucine aminopeptidase) is reported as 330 min and the half-life (carboxypeptidase A) is reported as 0.13 min. The “pseudo first-order rate constant” value (carboxypeptidase A) was 5.2 min⁻¹, the “Retraction assay % Retracted cells” value (osteoblast; 10 nM, 1 h, mouse calvaria osteoblasts) was 58.2% and the “activity relative to native, human parathyroid hormone” value (osteoblast; Osteoblast retraction assay) was “approximately 89%”. The “Specificity of the assay” value (PTH (1-34)-antibody) was 100%.
